From ChEMBL document CHEMBL1201862, “PubChem BioAssay data set” (2004)
Several values for one entry are separate records, joined by “and”; a condition that tells them apart may be missing. Equal entries are not always repeated. Activity calls are given as the source filed them.

Assays:
Cytochrome P450 1A2 = target: T1, Cytochrome P450 1A2 (Homo sapiens, UniProt P05177);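 further: PubChem cytochrome P450 panel assay, CYP1A2 panel member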
T1 sequence (P05177 whole entry): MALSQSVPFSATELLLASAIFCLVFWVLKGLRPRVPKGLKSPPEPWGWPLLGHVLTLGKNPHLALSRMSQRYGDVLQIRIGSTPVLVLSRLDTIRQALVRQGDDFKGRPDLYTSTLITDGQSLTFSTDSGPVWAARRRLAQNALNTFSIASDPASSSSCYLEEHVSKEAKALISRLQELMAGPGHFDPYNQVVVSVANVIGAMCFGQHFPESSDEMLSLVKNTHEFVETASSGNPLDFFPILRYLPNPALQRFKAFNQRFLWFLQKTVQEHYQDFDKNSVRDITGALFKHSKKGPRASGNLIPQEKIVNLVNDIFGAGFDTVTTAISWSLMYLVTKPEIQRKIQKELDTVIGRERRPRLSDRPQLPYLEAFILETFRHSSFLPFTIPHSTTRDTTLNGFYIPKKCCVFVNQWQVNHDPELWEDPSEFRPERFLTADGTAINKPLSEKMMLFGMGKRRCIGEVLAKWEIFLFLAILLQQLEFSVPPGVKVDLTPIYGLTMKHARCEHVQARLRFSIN

[1] = target: Voltage-gated inwardly rectifying potassium channel KCNH2 (Homo sapiens, UniProt Q12809); settings: Potency;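 further: confirmatory quantitative high-throughput screen measuring inhibition of hERG channel activity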
CAAX prenyl protease 2 [2] = target: T2, CAAX prenyl protease 2 (Saccharomyces cerevisiae S288c, UniProt Q03530); format: biochemical
T2 sequence (Q03530 whole entry): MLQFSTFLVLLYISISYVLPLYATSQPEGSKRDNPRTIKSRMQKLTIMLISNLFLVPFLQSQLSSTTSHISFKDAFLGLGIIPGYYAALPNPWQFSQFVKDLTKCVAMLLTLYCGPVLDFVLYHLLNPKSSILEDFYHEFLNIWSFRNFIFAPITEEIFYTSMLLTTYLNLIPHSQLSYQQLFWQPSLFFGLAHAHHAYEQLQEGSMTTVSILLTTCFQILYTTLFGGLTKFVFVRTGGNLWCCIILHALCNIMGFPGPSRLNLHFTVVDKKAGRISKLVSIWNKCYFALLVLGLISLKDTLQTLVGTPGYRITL

CAAX prenyl protease 2 [3] = target: T3, CAAX prenyl protease 2 (Homo sapiens, UniProt Q9Y256); assay: human Rce1 protease inhibitors, dose response, biochemical, yeast membranes, quenched-peptide fluorescence, cherry-pick (AID 588849)
T3 sequence (Q9Y256 whole entry): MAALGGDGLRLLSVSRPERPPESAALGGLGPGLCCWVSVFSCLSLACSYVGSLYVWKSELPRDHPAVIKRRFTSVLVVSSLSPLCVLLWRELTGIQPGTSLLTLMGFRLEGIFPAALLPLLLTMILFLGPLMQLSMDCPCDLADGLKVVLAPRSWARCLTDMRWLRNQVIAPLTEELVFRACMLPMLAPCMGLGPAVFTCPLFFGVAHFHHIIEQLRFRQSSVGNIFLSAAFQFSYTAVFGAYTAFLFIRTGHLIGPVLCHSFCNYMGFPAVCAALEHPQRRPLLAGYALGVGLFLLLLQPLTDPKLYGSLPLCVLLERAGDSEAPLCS

Trypsin = Trypsin (Sus scrofa, UniProt P00761); assay: porcine trypsin inhibitors, dose response, selectivity assay for Rce1 protease inhibitor project, biochemical, quenched peptide fluorescence, cherry-pick (AID 488789)
Mu-type opioid receptor = Mu-type opioid receptor (Homo sapiens, UniProt P35372); format: functional, cell-based;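 further: U2OS cells with beta-arrestin recruitment to OPRM1 by beta-gal complementation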
[4] = target: 5-hydroxytryptamine receptor 2A (Mus musculus, UniProt P35363); format: functional, cell-based;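 further: CHO-K1 cells with tagged receptor and beta-arrestin; agonist potency measured as compound-induced activation of the receptor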
[5] = target: T4, Nuclear receptor subfamily 0 group B member 1 (Homo sapiens, UniProt P51843); assay: Luminescence-based cell-based high throughput dose response assay for inhibitors of the orphan nuclear receptor subfamily 0, group B, member 1 (DAX1; NR0B1). [Related pubchem assays (depositor defined):AID504766, AID504790]; format: functional
T4 sequence (P51843 whole entry): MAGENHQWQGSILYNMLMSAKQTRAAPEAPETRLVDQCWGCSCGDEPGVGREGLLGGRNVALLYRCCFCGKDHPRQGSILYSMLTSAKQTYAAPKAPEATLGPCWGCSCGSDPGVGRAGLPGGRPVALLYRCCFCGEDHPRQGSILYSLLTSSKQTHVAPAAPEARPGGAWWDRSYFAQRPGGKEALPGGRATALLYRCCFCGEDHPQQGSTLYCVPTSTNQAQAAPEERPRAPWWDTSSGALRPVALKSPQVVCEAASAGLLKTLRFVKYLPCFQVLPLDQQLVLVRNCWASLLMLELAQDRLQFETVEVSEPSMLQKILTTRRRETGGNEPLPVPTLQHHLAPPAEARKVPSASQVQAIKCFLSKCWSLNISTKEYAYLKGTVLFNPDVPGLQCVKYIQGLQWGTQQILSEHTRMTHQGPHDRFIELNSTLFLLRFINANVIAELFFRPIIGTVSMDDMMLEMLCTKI

HEK293 = assay: cells; format: functional, cell-based; settings: Homo sapiens
[6] = target: T5, Sentrin-specific protease 7 (Homo sapiens, UniProt Q9BQF6); format: functional;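 further: Luminescence-based dose-response confirmation of ultra-high-throughput screening hits, measuring inhibition of SENP7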
T5 sequence (Q9BQF6 whole entry): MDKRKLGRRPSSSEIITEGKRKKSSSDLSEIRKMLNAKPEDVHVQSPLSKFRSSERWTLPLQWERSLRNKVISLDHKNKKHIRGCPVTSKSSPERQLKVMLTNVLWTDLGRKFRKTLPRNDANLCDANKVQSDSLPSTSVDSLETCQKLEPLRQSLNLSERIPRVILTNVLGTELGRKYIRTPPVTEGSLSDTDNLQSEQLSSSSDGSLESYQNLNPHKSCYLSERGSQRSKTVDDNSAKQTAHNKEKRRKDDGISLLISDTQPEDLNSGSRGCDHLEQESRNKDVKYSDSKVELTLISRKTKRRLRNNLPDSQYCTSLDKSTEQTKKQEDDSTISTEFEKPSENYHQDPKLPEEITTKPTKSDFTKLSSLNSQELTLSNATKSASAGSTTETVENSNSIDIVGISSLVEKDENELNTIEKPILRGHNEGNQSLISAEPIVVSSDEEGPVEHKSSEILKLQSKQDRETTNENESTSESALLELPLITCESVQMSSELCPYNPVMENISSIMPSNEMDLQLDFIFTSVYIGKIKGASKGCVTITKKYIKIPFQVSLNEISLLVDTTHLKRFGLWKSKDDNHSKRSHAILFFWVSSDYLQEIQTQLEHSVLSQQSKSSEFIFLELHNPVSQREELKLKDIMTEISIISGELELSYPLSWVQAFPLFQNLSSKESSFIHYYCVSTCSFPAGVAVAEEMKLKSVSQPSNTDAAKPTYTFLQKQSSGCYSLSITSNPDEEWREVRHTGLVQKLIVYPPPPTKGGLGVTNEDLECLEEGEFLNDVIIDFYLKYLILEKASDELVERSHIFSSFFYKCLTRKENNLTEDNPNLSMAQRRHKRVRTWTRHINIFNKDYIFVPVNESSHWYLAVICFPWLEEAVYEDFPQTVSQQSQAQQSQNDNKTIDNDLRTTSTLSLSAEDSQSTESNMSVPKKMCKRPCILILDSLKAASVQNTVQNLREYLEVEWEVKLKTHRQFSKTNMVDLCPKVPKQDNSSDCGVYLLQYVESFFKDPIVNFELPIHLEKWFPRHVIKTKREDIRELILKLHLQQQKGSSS

Caspase-3 = target: T6, Caspase-3 (Homo sapiens, UniProt P42574); format: functional;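 further: Dose-response selectivity test against caspase-3 for candidate inhibitors of sentrin-specific proteases (SENPs)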
T6 sequence (P42574 whole entry): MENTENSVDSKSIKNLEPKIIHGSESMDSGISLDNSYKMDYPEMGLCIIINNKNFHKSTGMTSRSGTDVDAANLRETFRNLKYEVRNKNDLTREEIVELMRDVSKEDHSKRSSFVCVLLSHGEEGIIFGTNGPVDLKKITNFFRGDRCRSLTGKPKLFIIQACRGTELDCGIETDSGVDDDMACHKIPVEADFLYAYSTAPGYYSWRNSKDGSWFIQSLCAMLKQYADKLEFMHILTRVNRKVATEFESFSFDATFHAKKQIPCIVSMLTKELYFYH

[7] = target: T7, Sentrin-specific protease 6 (Homo sapiens, UniProt Q9GZR1); format: functional;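 further: Luminescence-based dose-response confirmatory assay of SENP6 inhibition, following up an ultra-high-throughput screen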
T7 sequence (Q9GZR1 whole entry): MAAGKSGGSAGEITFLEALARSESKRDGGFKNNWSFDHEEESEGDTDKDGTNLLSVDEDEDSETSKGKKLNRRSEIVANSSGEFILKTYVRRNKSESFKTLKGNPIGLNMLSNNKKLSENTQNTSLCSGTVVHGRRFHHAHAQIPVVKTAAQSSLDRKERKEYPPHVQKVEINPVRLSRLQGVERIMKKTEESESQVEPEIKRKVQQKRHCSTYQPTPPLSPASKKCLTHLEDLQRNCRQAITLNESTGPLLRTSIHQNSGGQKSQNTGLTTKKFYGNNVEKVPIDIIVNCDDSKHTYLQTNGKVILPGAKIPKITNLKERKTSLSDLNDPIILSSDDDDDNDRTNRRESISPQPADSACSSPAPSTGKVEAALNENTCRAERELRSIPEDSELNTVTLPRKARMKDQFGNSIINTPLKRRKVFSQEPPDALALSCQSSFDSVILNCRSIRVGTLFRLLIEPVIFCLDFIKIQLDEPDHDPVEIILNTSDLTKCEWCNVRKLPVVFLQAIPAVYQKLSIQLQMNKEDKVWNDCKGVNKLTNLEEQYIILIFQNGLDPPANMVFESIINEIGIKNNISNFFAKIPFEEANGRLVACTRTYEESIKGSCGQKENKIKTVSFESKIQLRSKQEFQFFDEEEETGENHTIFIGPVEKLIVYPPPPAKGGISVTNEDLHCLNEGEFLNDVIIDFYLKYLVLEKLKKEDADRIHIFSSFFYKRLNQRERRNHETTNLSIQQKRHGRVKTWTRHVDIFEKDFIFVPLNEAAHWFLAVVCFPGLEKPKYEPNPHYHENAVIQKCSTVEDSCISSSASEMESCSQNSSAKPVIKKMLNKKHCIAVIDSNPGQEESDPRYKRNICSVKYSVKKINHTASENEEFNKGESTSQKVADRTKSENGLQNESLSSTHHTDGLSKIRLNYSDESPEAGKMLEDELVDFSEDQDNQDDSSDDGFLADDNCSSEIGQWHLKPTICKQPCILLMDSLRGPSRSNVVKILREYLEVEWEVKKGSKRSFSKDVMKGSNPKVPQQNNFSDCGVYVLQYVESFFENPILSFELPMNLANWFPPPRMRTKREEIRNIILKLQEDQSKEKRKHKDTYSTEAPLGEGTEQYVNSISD

[8] = target: T8, Sentrin-specific protease 8 (Homo sapiens, UniProt Q96LD8); format: functional;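 further: luminescence read-out of SENP8 inhibition, dose-response confirmation following an ultra-high-throughput screen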
T8 sequence (Q96LD8 whole entry): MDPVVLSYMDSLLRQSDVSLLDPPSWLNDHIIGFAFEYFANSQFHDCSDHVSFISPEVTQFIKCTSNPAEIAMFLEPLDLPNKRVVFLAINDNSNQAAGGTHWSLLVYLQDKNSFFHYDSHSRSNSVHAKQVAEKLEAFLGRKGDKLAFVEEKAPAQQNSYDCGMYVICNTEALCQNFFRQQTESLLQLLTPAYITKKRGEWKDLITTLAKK

[9] = target: T9, Endoribonuclease toxin MazF (Escherichia coli K-12, UniProt P0AE70); assay: MazF toxin RNase activators, dose response, biochemical, fluorescence, single-stranded RNA substrate, uHTS hits (AID 588481); format: functional
T9 sequence (P0AE70 whole entry): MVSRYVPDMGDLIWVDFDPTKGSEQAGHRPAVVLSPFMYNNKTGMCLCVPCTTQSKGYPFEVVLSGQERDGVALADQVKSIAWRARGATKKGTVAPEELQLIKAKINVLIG

[10] = target: T9, Endoribonuclease toxin MazF; assay: fluorescent RNA oligo signal without MazF, dose response, counter-screen for MazEF activator project, biochemical, fluorescence, single-stranded RNase substrate (AID 588502); format: functional
Cytochrome P450 3A4 = Cytochrome P450 3A4 (Homo sapiens, UniProt P08684);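 further: CYP3A4 tested as one member of a cytochrome P450 panel screen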
Sequence of Cytochrome P450 3A4 (P08684 whole entry): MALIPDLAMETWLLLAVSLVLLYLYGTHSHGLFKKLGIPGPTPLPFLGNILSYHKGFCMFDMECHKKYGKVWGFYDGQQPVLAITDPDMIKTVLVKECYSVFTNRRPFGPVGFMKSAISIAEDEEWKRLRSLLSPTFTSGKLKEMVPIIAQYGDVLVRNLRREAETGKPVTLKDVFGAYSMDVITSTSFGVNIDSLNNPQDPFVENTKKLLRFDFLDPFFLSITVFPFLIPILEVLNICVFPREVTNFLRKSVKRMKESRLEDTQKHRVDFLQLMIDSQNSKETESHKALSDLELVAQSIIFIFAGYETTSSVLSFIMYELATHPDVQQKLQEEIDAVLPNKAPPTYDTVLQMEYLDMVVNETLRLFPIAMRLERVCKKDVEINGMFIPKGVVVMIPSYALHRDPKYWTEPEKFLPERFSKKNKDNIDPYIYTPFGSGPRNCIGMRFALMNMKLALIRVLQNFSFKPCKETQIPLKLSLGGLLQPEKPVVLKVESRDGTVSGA

Sequence of Voltage-gated inwardly rectifying potassium channel KCNH2 (Q12809 whole entry): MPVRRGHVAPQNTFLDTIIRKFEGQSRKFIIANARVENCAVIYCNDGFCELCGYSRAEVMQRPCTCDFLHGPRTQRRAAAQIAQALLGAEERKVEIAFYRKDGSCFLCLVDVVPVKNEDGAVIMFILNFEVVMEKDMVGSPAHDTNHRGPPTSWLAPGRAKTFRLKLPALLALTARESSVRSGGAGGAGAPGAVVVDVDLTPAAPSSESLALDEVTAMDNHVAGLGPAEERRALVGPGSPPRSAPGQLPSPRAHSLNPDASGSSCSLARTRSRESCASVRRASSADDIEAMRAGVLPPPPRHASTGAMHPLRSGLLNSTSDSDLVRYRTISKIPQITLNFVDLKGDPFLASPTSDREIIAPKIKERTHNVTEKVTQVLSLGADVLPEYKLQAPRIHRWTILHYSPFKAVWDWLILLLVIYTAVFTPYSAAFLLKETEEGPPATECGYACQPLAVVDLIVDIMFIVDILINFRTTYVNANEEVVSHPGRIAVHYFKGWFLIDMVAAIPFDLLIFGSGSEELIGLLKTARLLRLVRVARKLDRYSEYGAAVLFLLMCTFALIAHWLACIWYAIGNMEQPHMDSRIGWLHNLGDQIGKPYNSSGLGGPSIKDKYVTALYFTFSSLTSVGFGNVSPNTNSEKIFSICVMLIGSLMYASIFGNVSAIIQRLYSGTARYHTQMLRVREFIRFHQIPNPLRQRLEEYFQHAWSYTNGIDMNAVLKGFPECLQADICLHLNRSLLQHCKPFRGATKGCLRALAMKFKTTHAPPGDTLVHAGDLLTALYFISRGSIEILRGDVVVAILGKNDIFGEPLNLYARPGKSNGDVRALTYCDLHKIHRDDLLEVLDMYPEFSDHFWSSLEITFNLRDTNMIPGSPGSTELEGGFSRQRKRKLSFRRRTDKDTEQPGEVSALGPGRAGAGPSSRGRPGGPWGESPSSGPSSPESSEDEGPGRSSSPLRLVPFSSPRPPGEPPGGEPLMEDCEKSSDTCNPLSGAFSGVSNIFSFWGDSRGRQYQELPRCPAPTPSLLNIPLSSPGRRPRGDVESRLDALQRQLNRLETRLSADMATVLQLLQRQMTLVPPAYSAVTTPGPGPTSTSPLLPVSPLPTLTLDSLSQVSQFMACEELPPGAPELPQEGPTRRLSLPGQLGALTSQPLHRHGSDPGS
Sequence of 5-hydroxytryptamine receptor 2A (P35363 whole entry): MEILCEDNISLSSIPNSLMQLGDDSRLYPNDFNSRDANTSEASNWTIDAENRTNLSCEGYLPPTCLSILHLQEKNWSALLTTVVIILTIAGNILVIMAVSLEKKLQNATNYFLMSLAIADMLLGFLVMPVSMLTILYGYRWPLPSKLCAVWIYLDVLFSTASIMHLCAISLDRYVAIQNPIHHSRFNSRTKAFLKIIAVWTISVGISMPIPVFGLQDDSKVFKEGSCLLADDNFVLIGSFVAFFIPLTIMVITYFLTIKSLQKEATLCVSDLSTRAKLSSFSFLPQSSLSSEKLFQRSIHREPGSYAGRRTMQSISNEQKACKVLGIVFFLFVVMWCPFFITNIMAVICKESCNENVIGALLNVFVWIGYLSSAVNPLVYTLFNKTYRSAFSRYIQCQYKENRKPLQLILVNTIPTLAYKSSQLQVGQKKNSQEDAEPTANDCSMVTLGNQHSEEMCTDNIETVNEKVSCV
Sequence of Trypsin (P00761 whole entry): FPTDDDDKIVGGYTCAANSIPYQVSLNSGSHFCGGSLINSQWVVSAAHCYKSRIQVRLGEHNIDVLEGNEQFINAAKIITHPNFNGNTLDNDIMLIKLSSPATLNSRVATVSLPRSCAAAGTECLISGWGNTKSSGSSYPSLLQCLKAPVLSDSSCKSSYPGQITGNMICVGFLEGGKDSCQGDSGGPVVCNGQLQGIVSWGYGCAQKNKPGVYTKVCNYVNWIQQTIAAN
Sequence of Mu-type opioid receptor (P35372 whole entry): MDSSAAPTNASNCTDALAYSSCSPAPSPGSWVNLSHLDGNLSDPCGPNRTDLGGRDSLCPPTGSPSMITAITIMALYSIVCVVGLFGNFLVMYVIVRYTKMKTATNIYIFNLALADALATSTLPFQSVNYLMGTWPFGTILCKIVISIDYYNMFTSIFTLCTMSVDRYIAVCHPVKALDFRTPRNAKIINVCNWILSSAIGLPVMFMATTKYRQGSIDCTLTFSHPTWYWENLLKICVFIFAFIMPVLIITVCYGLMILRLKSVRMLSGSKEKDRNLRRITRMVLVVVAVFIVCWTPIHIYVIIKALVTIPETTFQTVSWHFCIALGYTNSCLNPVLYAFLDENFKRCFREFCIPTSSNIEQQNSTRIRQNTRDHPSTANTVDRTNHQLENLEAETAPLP

O=C(Nc1cc(C(=O)Nc2ccc(S(=O)(=O)O)cc2S(=O)(=O)O)cc(C(=O)Nc2ccc(S(=O)(=O)O)cc2S(=O)(=O)O)c1)Nc1cc(C(=O)Nc2ccc(S(=O)(=O)O)cc2S(=O)(=O)O)cc(C(=O)Nc2ccc(S(=O)(=O)O)cc2S(=O)(=O)O)c1
AC50 (Cytochrome P450 1A2): 31.6 µM (inconclusive) and 39.8 µM (inconclusive)
AC50 [1]: 35.5 µM (inconclusive)

CC1(C(=O)N(CC(=O)NC2CCCC2)Cc2ccco2)CC(=O)N=C2C=CC=CN21 (stereo not given)
AC50 (CAAX prenyl protease 2 [2]): 4.64 µM (active)
AC50 (CAAX prenyl protease 2 [3]): 3.19 µM (active)
AC50 (Trypsin): 4.21 µM (active)

CC1=NN=C(c2ccc(N)cc2)c2cc3c(cc2C1)OCO3
EC50 (Mu-type opioid receptor): 92.5 µM (inactive)
EC50 [4]: 76.1 µM (inactive)
AC50 [1]: 35.5 µM (inconclusive)

CCOC(=O)c1ccc2[nH]c3ccccc3c2c1
IC50 [5]: > 67.5 µM (inactive)
IC50 (HEK293): > 67.5 µM (inactive)

Cc1ccc(NC(=O)c2cccc3cccnc23)cc1
IC50 [6]: 8.6 µM (active)
IC50 (Caspase-3): 32.5 µM (active)
IC50 [7]: 31.3 µM (active)
IC50 [8]: 24.3 µM (active)

Oc1ccccc1-c1nc(NCc2ccco2)c2ccccc2n1
EC50 [9]: > 99 µM (inactive)
EC50 [10]: > 99 µM (inactive)

Cc1nc2cc(NC(=O)c3ccc(Br)s3)ccc2s1
IC50 [6]: 4.08 µM (active)
IC50 (Caspase-3): 19.7 µM (active)
IC50 [7]: > 100 µM (inactive)
IC50 [8]: > 100 µM (inactive)

C=CCOC(=O)C1=C(C)OC(N)=C(C#N)C1c1ccco1 (stereo not given)
IC50 [5]: > 67.5 µM (inactive)
IC50 (HEK293): > 67.5 µM (inactive)

Cc1ccc(/N=C/c2c(O)oc3ccccc3c2=O)c(C)c1
IC50 [6]: > 100 µM (inactive)
IC50 (Caspase-3): 95 µM (active)
IC50 [7]: > 100 µM (inactive)
IC50 [8]: > 100 µM (inactive)

Nc1ncnc2c1ncn2C1C=C(CO)C(O)C1O (stereo not given)
IC50 [5]: > 67.7 µM (inactive)
IC50 (HEK293): > 2.51 µM (active)

C[C@H](O)C(=O)C1=Nc2c(nc(N)[nH]c2=O)NC1 [SEPIAPTERIN]
AC50 (Cytochrome P450 3A4): 0.316 µM (inconclusive)
AC50 [1]: 28.2 µM (inconclusive)
